Measured values reported in ChEMBL document CHEMBL3576794, “Decaprenylphosphoryl-β-d-ribose 2'-Epimerase 1 (DprE1): A Novel Therapeutic Target for the Treatment of Tuberculosis” (2015).
≈ marks a conversion by molar mass, not a printed value.

Each molecule was assayed on Mycobacterium tuberculosis (assay: Antibacterial activity against Mycobacterium tuberculosis H37Rv ATCC 27294 after 5 days by microdilution method). Settings: H37Rv ATCC 27294, 120 h.
Assay type: functional

Question: For `COc1ncnc(Cn2cc(C(=O)NCCF)c3ncc(Br)cc32)c1C`, which MIC80 is on record?
Answer: The MIC80 was 0.781 µM (≈ 0.33 µg/mL).

Question: `COc1ncnc(Cn2cc(C(=O)NCCF)c3ncccc32)c1C` was tested. Which MIC80 did it give?
Answer: Its MIC80 is 1.56 µM (≈ 0.536 µg/mL).

Question: For `COc1ncnc(Cn2cc(C(=O)NCCO)c3ncc(C)cc32)c1C` [TBA-7371], which MIC80 is on record?
Answer: The MIC80 was 1.56 µM (≈ 0.554 µg/mL).

Question: How did the MIC80 turn out when `COc1cnc2c(C(=O)NCC(F)F)cn(Cc3ncnc(OC)c3C)c2c1` was run?
Answer: Its MIC80 is less than 0.39 µM.

Question: How did the MIC80 turn out when `COc1ncnc(Cn2cc(C(=O)NC[C@@H](C)O)c3ncc(C)cc32)c1C` was run?
Answer: Its MIC80 is 6.52 µM (≈ 2.41 µg/mL).

Question: Which MIC80 does the source give for `CC(c1c(F)cccc1F)n1cc(C(=O)NCCF)c2ncccc21` (stereo unspecified) here?
Answer: Its MIC80 is 12.5 µM (≈ 4.34 µg/mL).
